Measurements from article PMC7957578, “N-(1,3,4-Oxadiazol-2-yl)Benzamides as Antibacterial Agents against Neisseria gonorrhoeae” (International Journal of Molecular Sciences, 2021).
≈ marks a conversion by molar mass, not a printed value. Like-named read-outs stand apart in the source and are kept apart here.

Tests used:
Conditions in all cases: Neisseria gonorrhoeae
[1] = tested on: N. gonorrhoeae 165; assay: MIC/MBC against N. gonorrhoeae clinical isolate 165; assay type: cell-based
Method: (§1) Briefly, bacteria were grown overnight on chocolate agar II at 37° C in the presence of 5% CO2. Afterwards, a bacterial suspension equivalent to 1.0 McFarland standard was prepared and diluted in brucella broth supplemented with yeast extract, neopeptone, hematin, pyridoxal, and NAD. Test agents were added in the first row of the 96-well plates and serially diluted along the plates. Plates were then incubated at 37° C in the presence of 5% CO2 for 24 h. […] Plates were then incubated at 37 ° C in the presence of 5% CO2 for 24 h. The MBC was categorized as the lowest concentration that reduced bacterial growth by 99.9% [45, 46, 47].

[2] = tested on: N. gonorrhoeae 194; assay: MIC/MBC against N. gonorrhoeae clinical isolate 194; assay type: cell-based
Method: as §1

[3] = tested on: N. gonorrhoeae WHO L; assay: MIC/MBC against N. gonorrhoeae WHO L reference strain; assay type: cell-based
Method: as §1

[4] = tested on: N. gonorrhoeae 197; assay: MIC/MBC against N. gonorrhoeae clinical isolate 197; assay type: cell-based
Method: as §1

[5] = tested on: N. gonorrhoeae strain 181; assay: MIC by broth microdilution against N. gonorrhoeae strain 181; assay type: cell-based, Neisseria gonorrhoeae
Method: as §1

[6] = tested on: N. gonorrhoeae 166; assay: MIC/MBC against N. gonorrhoeae clinical isolate 166; assay type: cell-based
Method: as §1

[7] = tested on: N. gonorrhoeae 200; assay: MIC/MBC against N. gonorrhoeae clinical isolate 200; assay type: cell-based
Method: as §1

[8] = N. gonorrhoeae strain 181, read-out: MIC

CC[C@H]1OC(=O)[C@H](C)[C@@H](O[C@H]2C[C@@](C)(OC)[C@@H](O)[C@H](C)O2)[C@H](C)[C@@H](O[C@@H]2O[C@H](C)C[C@H](N(C)C)[C@H]2O)[C@](C)(O)C[C@@H](C)CN(C)[C@H](C)[C@@H](O)[C@]1(C)O [Azithromycin, azithromycin, reference compound]
MBC [1]: 4 µg/mL (≈ 5.34 µM) | MIC [1]: 1 µg/mL (≈ 1.34 µM) | MBC [2]: 0.5 µg/mL (≈ 0.668 µM) | MIC [2]: 0.25 µg/mL (≈ 0.334 µM) | MBC [3]: 1 µg/mL (≈ 1.34 µM) | MIC [3]: 0.5 µg/mL (≈ 0.668 µM) | MBC [4]: 2 µg/mL (≈ 2.67 µM) | MIC [4]: 0.5 µg/mL (≈ 0.668 µM) | MIC [5]; 181: 256 µg/mL (≈ 342 µM) | MBC [6]: 1 µg/mL (≈ 1.34 µM) | MIC [6]: 0.5 µg/mL (≈ 0.668 µM) | MBC [7]: 0.5 µg/mL (≈ 0.668 µM) | MIC [7]: 0.5 µg/mL (≈ 0.668 µM)

O=C(Nc1nnc(-c2cccs2)o1)c1ccc(S(=O)(=O)C(F)(F)F)cc1 [Compound 6]
MIC [5, 8]: 0.5 µg/mL (≈ 1.24 µM)

O=C(Nc1nnc(-c2cccs2)o1)c1ccc(SC(F)(F)F)cc1 [Compound 12]
MIC [5, 8]: 0.06 µg/mL (≈ 0.162 µM)

O=C(Nc1nnc(-c2cccs2)o1)c1ccc(S(F)(F)(F)(F)F)cc1 [Compound 13]
MIC [5, 8]: 0.06 µg/mL (≈ 0.151 µM)
